The source of these data is ChEMBL document CHEMBL5303573, “Mapping human microbiome drug metabolism by gut bacteria and their genes” (Nature, 2019).

A short description of data set [1]: The drug is tested on Dorea formicigenerans strain: ATCC27755 for biotransformation. The drug concentrations were measured before and after a 12-h incubation by liquid-chromatography-coupled mass spectrometry (LC–MS). The conditions noted are these: 2 µM.
For data set [2] the following is noted: limosilactobacillus reuteri cf48-3a, 12 h, 2 µM.
Description: The drug is tested on Lactobacillus reuteri CF48-3A strain: BEI HM-102 for biotransformation. The drug concentrations were measured before and after a 12-h incubation by liquid-chromatography-coupled mass spectrometry (LC–MS)
The next data set addresses T1, Regulatory protein (Bacteroides thetaiotaomicron, UniProt Q8A576).
T1 sequence (Q8A576 whole entry): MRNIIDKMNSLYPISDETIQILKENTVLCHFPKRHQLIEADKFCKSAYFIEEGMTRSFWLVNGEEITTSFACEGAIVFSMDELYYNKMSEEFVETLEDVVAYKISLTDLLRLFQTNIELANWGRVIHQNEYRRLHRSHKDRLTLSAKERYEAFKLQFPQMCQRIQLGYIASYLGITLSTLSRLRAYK
Put plainly: (§1) The drug is tested on Bacteroides thetaiotaomicron strain: VPI-5482 for biotransformation. The drug concentrations were measured before and after a 12-h incubation by liquid-chromatography-coupled mass spectrometry (LC–MS). It is filed as ADME. Details: dose 2 uM. The conditions noted are these: 2 µM.

Data set [3] deals with T2, Lipolytic enzyme, G-D-S-L family (Bacteroides thetaiotaomicron, UniProt Q8A0E6).
T2 sequence (Q8A0E6 whole entry): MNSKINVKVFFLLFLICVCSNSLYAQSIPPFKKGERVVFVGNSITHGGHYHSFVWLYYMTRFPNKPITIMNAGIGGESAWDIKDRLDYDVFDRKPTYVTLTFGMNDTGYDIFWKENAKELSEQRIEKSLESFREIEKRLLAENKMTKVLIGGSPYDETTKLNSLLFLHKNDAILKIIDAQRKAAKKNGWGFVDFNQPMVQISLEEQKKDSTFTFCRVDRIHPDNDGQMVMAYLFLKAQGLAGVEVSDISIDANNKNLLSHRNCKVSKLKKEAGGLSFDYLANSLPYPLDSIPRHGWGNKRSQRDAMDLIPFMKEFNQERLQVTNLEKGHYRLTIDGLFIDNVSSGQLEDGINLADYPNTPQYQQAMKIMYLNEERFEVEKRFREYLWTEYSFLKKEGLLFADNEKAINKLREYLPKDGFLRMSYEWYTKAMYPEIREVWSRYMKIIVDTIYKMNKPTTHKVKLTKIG
Described as §1. The following applies: 2 µM. Details: dose 2 uM. It is filed as ADME.

Data set [4] deals with T3, 3-oxo-5-alpha-steroid 4-dehydrogenase (Bacteroides thetaiotaomicron, UniProt Q8A618).
T3 sequence (Q8A618 whole entry): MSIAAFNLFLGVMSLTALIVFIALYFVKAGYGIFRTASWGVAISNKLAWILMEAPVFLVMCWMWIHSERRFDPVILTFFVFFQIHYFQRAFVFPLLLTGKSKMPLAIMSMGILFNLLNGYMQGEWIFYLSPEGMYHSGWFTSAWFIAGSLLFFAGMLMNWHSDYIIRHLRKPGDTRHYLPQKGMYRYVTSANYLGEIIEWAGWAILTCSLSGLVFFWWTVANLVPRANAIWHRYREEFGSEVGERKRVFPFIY
The data set is described as §1. The following applies: 2 µM. It is filed as ADME. The arrangement: dose 2 uM.

Data set [5] deals with T4, Sialic acid-specific acetylesterase (Bacteroides thetaiotaomicron, UniProt Q8A331).
T4 sequence (Q8A331 whole entry): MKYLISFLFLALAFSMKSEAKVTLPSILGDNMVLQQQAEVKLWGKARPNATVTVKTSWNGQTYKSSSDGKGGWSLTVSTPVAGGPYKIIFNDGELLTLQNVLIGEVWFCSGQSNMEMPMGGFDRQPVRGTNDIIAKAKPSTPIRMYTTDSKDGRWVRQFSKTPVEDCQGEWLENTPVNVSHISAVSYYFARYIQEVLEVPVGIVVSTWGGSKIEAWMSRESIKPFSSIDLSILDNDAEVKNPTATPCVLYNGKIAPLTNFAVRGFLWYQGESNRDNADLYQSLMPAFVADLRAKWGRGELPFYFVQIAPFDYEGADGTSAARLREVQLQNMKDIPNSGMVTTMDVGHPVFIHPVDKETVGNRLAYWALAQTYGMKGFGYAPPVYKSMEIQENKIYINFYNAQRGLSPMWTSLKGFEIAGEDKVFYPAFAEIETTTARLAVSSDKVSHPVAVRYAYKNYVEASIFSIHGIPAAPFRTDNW
Described as §1. It is filed as ADME. Details: dose 2 uM. The following applies: 2 µM.

For data set [6], the target named is T5, Nitroreductase-like protein (Bacteroides thetaiotaomicron, UniProt Q8AB93).
T5 sequence (Q8AB93 whole entry): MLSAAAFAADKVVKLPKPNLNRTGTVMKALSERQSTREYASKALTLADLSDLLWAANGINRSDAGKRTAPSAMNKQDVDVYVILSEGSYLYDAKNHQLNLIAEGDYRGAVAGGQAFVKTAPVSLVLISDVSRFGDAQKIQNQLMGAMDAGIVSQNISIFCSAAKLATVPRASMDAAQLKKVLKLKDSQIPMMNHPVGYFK
Described as §1. It is filed as ADME. The arrangement: dose 2 uM. The following applies: 2 µM.

For a further data set, the target named is General stress protein (Bacteroides thetaiotaomicron, UniProt Q8A7U5). The data set is described as §1. It is filed as ADME. The arrangement: dose 2 uM. The following applies: 2 µM.
The next data set addresses T6, Endoglucanase E (EGE) (Bacteroides thetaiotaomicron, UniProt Q8AAL9).
T6 sequence (Q8AAL9 whole entry): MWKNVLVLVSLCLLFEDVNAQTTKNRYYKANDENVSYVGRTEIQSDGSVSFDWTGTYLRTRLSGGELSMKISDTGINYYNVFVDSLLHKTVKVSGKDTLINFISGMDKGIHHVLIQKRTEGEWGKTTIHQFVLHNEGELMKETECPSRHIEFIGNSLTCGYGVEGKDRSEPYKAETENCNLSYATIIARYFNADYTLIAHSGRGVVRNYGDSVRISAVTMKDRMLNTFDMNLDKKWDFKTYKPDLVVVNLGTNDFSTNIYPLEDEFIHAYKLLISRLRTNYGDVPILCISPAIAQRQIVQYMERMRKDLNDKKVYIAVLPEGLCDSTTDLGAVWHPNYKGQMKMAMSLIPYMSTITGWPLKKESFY
The description is as §1. It is filed as ADME. The arrangement: dose 2 uM. The following applies: 2 µM.

Another data set addresses T7, Nitroreductase (Bacteroides thetaiotaomicron, UniProt Q8A911).
T7 sequence (Q8A911 whole entry): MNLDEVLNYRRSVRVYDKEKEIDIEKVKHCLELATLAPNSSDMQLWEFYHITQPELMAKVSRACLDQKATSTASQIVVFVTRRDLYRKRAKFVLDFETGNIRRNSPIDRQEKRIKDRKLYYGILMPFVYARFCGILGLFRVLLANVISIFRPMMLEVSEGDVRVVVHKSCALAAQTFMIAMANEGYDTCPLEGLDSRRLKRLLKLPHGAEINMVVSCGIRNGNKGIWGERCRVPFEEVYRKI
The data set is described as §1. It is filed as ADME. The arrangement: dose 2 uM. The conditions noted are these: 2 µM.

A short description of data set [7]: The drug is tested on Bacteroides fragilis strain: HMW610 for biotransformation. The drug concentrations were measured before and after a 12-h incubation by liquid-chromatography-coupled mass spectrometry (LC–MS). The conditions noted are these: 2 µM.
The conditions of data set [8]: bacteroides fragilis, 12 h, 2 µM.
Description: The drug is tested on Bacteroides fragilis strain: NCTC 9343 for biotransformation. The drug concentrations were measured before and after a 12-h incubation by liquid-chromatography-coupled mass spectrometry (LC–MS)
A short description of data set [9]: The drug is tested on Blautia hansenii strain: DSM20583 for biotransformation. The drug concentrations were measured before and after a 12-h incubation by liquid-chromatography-coupled mass spectrometry (LC–MS). The conditions noted are these: 2 µM.
The nature of data set [10]: The drug is tested on Coprococcus comes strain: ATCC27758 for biotransformation. The drug concentrations were measured before and after a 12-h incubation by liquid-chromatography-coupled mass spectrometry (LC–MS). The conditions noted are these: 2 µM. It is filed as ADME. Details: dose 2 uM, timepoint 0 vs 12 hours.
Data set [11] can be described thus: The drug is tested on Odoribacter splanchnicus strain: fecal isolate for biotransformation. The drug concentrations were measured before and after a 12-h incubation by liquid-chromatography-coupled mass spectrometry (LC–MS). The conditions noted are these: 2 µM.

SMILES strings stand for the structures.

General stress protein, sequence (Q8A7U5 1-138, change not shown): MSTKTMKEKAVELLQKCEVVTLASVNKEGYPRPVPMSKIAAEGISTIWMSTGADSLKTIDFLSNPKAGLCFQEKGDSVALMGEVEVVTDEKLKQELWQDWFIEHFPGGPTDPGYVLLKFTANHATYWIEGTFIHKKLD

Consider `O=C(O)c1cc(/N=N/c2ccc(S(=O)(=O)Nc3ccccn3)cc2)ccc1O` [SULFASALAZINE], for which the “Bacterial Biotransformation” value in data set [1] is on record as “Compound metabolized”; in data set [2], “Compound metabolized”; on Regulatory protein it was “Compound NOT metabolized”; in data set [3], “Compound NOT metabolized”; in [4], “Compound NOT metabolized”; in data set [5], “Compound NOT metabolized”. The “Bacterial Biotransformation” value is reported as “Compound metabolized” in [6]; “Compound metabolized” on General stress protein; “Compound NOT metabolized” on Endoglucanase E (EGE); “Compound NOT metabolized” on Nitroreductase; “Compound metabolized” in [7]; “Compound metabolized” in data set [8]. Moreover, the “Bacterial Biotransformation” value in data set [9], in data set [10] and in data set [11] was “Compound metabolized” throughout.

Regarding `CCS(=O)(=O)CCn1c([N+](=O)[O-])cnc1C` [TINIDAZOLE], the “Bacterial Biotransformation” value in data set [1] is “Compound metabolized”; in [2], “Compound NOT metabolized”; at Regulatory protein, “Compound NOT metabolized”; in data set [3], “Compound NOT metabolized”; in data set [4], “Compound NOT metabolized”; in [5], “Compound NOT metabolized”. Moreover, the “Bacterial Biotransformation” value in data set [6] is “Compound metabolized”; on General stress protein it was “Compound NOT metabolized”; at Endoglucanase E (EGE), “Compound NOT metabolized”; on Nitroreductase, “Compound metabolized”; in [7] it was “Compound metabolized”; in [8], “Compound metabolized”. Further, the “Bacterial Biotransformation” value in data set [9], in [10] and in data set [11] was “Compound metabolized” each time.
